The results in this text go back to ChEMBL document CHEMBL1201862, “PubChem BioAssay data set” (2004).

A short description of experiment [1]: viability of uninfected HEp-2 cells – cell-based, HTS, cytotoxicity control for RSV inhibitor project, dose response (AID 2410). Type of experiment: functional. As to conditions: human respiratory syncytial virus.
A further experiment concerns the target Cytochrome P450 2C19 (Homo sapiens, UniProt P33261). The experiment in a line: Cytochrome panel assay with activity outcomes. Panel member name: p450-cyp2c19 Compounds with AC50 equal or less than 10 uM are considered active. The class given is functional. As to conditions: read-out: AC50.
The target in experiment [2] is T1, Heat shock factor protein 1 (Mus musculus, UniProt P38532).
T1 sequence (P38532 whole entry): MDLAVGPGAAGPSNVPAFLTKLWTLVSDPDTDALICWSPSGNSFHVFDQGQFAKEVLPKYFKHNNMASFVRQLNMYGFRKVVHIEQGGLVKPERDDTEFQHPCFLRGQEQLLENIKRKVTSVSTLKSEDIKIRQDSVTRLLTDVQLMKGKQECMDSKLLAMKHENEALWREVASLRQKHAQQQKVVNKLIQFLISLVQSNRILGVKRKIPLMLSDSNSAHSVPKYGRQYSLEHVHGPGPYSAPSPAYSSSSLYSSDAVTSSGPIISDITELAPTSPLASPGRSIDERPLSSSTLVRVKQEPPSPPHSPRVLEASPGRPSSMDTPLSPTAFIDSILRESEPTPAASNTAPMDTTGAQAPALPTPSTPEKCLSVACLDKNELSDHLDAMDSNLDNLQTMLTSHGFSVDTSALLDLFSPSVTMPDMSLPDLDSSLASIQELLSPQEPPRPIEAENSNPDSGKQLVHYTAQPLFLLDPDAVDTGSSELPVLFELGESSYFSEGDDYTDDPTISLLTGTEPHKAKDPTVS
The experiment in a line: enhancement of HSF1-driven luciferase signal – cell-based, NIH3T3, luminescence, dose retest, confirmation (AID 435004).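 Also: stress induced by proteasome inhibitor MG132 added 30 min after compound; luciferase reporter driven by HSF1 response element in NIH3T3 cells; actives raise luminescence as potentiators of the MG132 stress response.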 Type of experiment: functional.

The nature of experiment [3]: NIH3T3 cell viability loss – ATP luminescence, mouse fibroblasts, counter-screen, dose response (AID 2010).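 Also: cells exposed to compound for about 90 hours before reading.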 The class given is functional, cell-based. In general terms: The purpose of a counterscreen is to sort out artefacts and off-target activity.
Experiment [4] can be described thus: Trypanosoma cruzi growth suppression in host cells – NIH3T3 host cells, beta-gal luminescence, confirmation (AID 2044).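 Also: intracellular parasites grown in NIH/3T3 mouse fibroblasts as host cells; luminescent beta-galactosidase reporter signal from transgenic T. cruzi replicating inside host cells; inhibitors lower the luminescence signal.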 The class given is functional, cell-based.
In the next experiment the test system is Streptococcus. The experiment in a line: GAS UMAA2166 growth inhibition – luminescence, BacTiterGlo, counter-screen for streptokinase expression inhibitor project, dose response (AID 1915).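 Also: potency for reduction of bacterial viability or growth.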 The class given is functional, organism-based.
In experiment [5] the test system is Streptococcus sp. 'group A'. The experiment in a line: Streptococcus pyogenes SK(-)GAS viability under kanamycin – luminescence, BacTiterGlo, confirmation, counter-screen for streptokinase expression inhibitor project, dose response (AID 1900). The class given is functional, organism-based.
The next experiment deals with T2, Streptokinase A (Streptococcus pyogenes serotype M1, UniProt P10520).
T2 sequence (P10520 whole entry): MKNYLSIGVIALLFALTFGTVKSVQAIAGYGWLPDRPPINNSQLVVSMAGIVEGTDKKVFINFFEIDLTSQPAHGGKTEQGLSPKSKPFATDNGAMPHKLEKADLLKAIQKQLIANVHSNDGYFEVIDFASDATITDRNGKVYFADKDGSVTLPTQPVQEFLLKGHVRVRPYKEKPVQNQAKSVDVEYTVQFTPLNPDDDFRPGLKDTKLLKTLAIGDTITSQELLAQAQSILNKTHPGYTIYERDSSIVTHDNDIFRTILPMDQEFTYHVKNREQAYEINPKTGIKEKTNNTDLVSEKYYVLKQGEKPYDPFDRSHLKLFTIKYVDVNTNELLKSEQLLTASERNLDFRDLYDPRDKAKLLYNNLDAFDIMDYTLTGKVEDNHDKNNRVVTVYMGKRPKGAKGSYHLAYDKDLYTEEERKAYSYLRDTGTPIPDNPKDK
The experiment in a line: viability-normalized secreted streptokinase activity reduction – plasminogen activation absorbance, OD405, dose response (AID 1914).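 Also: secreted streptokinase activity via plasminogen activation per viability signal from cell pellet.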 Type of experiment: functional, Streptococcus pyogenes M1 GAS.

Calls of active or inactive are those of the source.

Sequence of Cytochrome P450 2C19 (P33261 whole entry): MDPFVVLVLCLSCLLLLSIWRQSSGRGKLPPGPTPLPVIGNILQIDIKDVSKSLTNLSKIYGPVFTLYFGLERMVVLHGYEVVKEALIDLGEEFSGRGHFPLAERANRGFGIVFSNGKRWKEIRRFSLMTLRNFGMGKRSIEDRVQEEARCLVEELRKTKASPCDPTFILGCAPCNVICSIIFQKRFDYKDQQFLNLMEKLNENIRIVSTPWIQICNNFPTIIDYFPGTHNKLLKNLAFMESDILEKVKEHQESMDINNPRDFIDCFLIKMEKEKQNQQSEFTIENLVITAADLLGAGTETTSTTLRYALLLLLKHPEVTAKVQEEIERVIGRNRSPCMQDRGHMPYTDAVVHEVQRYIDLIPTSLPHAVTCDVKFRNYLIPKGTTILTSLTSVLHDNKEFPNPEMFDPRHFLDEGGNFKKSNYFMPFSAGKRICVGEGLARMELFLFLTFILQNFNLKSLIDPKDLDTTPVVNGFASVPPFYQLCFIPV

`Nc1c(Cl)cc(-c2csc(N3CCCC3c3nc4cc(Cl)c(Cl)cc4n3CCCO)n2)cc1Cl` (centres undefined): in experiment [1], the CC50 was 35.1 µM (active).
`Cc1sc(NC(=O)c2c(F)cccc2F)nc1-c1ccccc1`: the CC50 in experiment [1] was 43.2 µM (active).
Consider `COc1cc(C(=O)NCC(c2cccs2)N2CCc3ccccc32)cc(OC)c1OC` (centres undefined), for which, in experiment [1], the CC50 was 18 µM (active).
`Cc1cc(OC(=O)c2ccccc2Br)cc(=O)n1C`: the AC50 at Cytochrome P450 2C19 was 39.8 µM (inconclusive).
As to `CCNc1nc(NC(C)C)nc(N(C#N)C(C)C(=O)N(CC)CC)n1` (centres undefined), in experiment [1], the CC50 is 28.8 µM (active).
In the case of `Cc1ccccc1OCCCC(=O)Nc1ccccc1C(F)(F)F`, the EC50 in experiment [2] was > 260 µM (inactive).
Take `COc1cc(C(=O)NCC(c2cccnc2)N2CCN(c3ccc(F)cc3)CC2)cc(OC)c1OC` (centres undefined): the EC50 in experiment [3] is > 30 µM (not active); in experiment [4], 0.959 µM (active).
`COc1ccc(-c2cc(-c3ccc(Cl)cc3)[nH]n2)c(O)c1`: the EC50 in the experiment on Streptococcus is 9.14 µM (active); in experiment [5] it was 7.27 µM (active); on Streptokinase A, > 150 µM (not active).
`COc1cc(C(=O)NCC2CCCO2)ccc1OCc1ccc(Cl)cc1Cl` (centres undefined): the EC50 in experiment [2] is 104 µM (active).
On to `CCN(CC)CCCNC(=O)c1ccc(OCC(=O)Nc2ccccc2C(F)(F)F)c(OC)c1`, for which the EC50 is > 30 µM (not active) in experiment [3] and 1.95 µM (active) in experiment [4].
Consider `O=C(O)CSc1nc2ccccc2nc1Cc1ccccc1F`, for which the EC50 in experiment [2] was > 260 µM (inactive).
Regarding `O=C(Nc1nc2c(s1)CN(Cc1ccccc1)CC2)c1c(F)cccc1F`, the CC50 in experiment [1] was 16.1 µM (active).
On the same count and under the same terms, in the case of `Nc1nc(-c2cccnc2)nc2sc3c(c12)CCCC3` it was > 50 µM (active).
With `COc1ccc(C2CC(=O)c3c(C)nc(N4CCN(Cc5ccccc5)CC4)nc3C2)cc1OC` (centres undefined), the EC50 in experiment [3] was > 60 µM (not active); in experiment [4], 1.85 µM (active).
`Cc1ccc2nc(-c3ccncc3)c(NC3CCCCC3)n2c1`: the EC50 in experiment [3] is > 60 µM (not active); in experiment [4] it was 1.86 µM (active).
For the compound `COc1ccccc1OCc1nnc(SCCN2CCOCC2)o1`, the EC50 in experiment [2] was > 260 µM (inactive).
Take `Cc1ccc(C)c(N2CCN(C(=O)CCC(=O)N3CCOc4ccc(Cl)cc43)CC2)c1`: the EC50 in experiment [3] was > 60 µM (not active); in experiment [4], 2.47 µM (active).
The like results for `CCCC(CCC)C(=O)OC[N+](C)(C)CCOC(=O)C(O)(c1ccccc1)C1CCCC1` (centres undefined) were, in that order, > 60 µM (not active) and 1.31 µM (active).
The like results for `Cc1cc(C)cc(Nc2ccc([N+](=O)[O-])nc2[N+](=O)[O-])c1` were, in that order, > 60 µM (not active) and 1.63 µM (active).
Take `CC(Oc1cccc(Cl)c1)C(=O)Nc1ccccc1N1CCCCC1` (centres undefined): the EC50 was 26.4 µM (active) in the experiment with Streptococcus, 9.74 µM (active) in experiment [5] and 13.5 µM (active) on Streptokinase A.
Take `COc1ccccc1NS(=O)(=O)c1cc(NC(=S)NCC2CCCO2)ccc1C` (centres undefined): the EC50 at Streptokinase A is reported as > 150 µM (not active).
Turning to `COc1ccccc1NS(=O)(=O)c1cc(NC(S)=NCC2CCCO2)ccc1C` (centres undefined), the EC50 (in the experiment on Streptococcus; in experiment [5]) was > 150 µM (not active) throughout.
As for `Cc1cc(-c2ccccc2)c2c(O)[nH]nc2n1`, the CC50 in experiment [1] was 48.2 µM (active).
For `COc1ccc(C2C(C(C)=O)=C(O)C(=O)N2c2ccc(C)cc2)cc1` (centres undefined), the EC50 in experiment [2] is > 260 µM (inactive).
For `CC(C)(C)c1[nH]ncc1[N+](=O)[O-]`, in experiment [2], the EC50 was > 260 µM (inactive).
Turning to `Cc1ccccc1N=C(S)N(Cc1cccnc1)Cc1ccccc1Cl`, the EC50 is > 60 µM (not active) in experiment [3] and 0.8 µM (active) in experiment [4].
With `CC(=O)c1ccc(N=C(S)N2C(C)CCCC2C)cc1` (centres undefined), the EC50 in experiment [2] is > 260 µM (inactive).
`CCN(CCCC(=O)c1ccc(F)cc1)CCc1ccccc1`: the EC50 in experiment [3] is > 60 µM (not active); in experiment [4], 0.111 µM (active).
As for `Cc1nc(N2CCN(Cc3ccc4c(c3)OCO4)CC2)c2cc(-c3ccccc3)sc2n1`, the 50% effective concentration (EC50) in the experiment with Streptococcus is 112 µM (active); in experiment [5] it was 19.3 µM (active); at Streptokinase A, > 150 µM (not active).
On to `Cc1cc(OCCCn2ccnc2)ccc1C(C)C`, for which the figures for the EC50 in experiment [3] and in experiment [4] were > 60 µM (not active) and 1.99 µM (active), respectively.
In the case of `Brc1c[nH]c2nc(SC/C=C/c3ccccc3)nc-2c1`, the EC50 in experiment [2] was 1.37 µM (active).
Regarding `COc1ccc(-n2c(=S)[nH]c3cc(C(=O)Nc4ccc(C)c(F)c4)ccc3c2=O)c(OC)c1`, the EC50 in the experiment with Streptococcus is 14.8 µM (active); in experiment [5], 9.84 µM (active); at Streptokinase A, > 150 µM (not active).
`COc1ccc(-c2ncc(CN3CCN(CCC(C)C)C(CCO)C3)cn2)cc1` (centres undefined): the figures for the EC50 in experiment [3] and in experiment [4] were 12.3 µM (active) and 0.933 µM (active), respectively.
Consider `Cc1cccc(C(=O)N2CCC(=O)N(C(COCc3ccc(Cl)cc3)Cc3ccccc3)CC2)c1` (centres undefined), for which the CC50 in experiment [1] is 19.6 µM (active).
In the case of `Cc1ccccc1Oc1nc2c(C)cccn2c(=O)c1/C=C(\C#N)C(=O)Nc1c(C)n(C)n(-c2ccccc2)c1=O`, in experiment [2], the EC50 was 12.1 µM (active).
Take `O=C(Nc1ncc(Cc2cccc(C(F)(F)F)c2)s1)c1ccc(-c2cccc([N+](=O)[O-])c2)o1`: the values for the EC50 in experiment [3] and in experiment [4] were 9.52 µM (active) and 1.73 µM (active), respectively.
As for `O=C(NC12CC3CC(CC(C3)C1)C2)c1ccc(-c2ccc(Br)cc2)o1`, the EC50 in the experiment with Streptococcus is 9.47 µM (active); in experiment [5], 4.59 µM (active); at Streptokinase A, 35.3 µM (active).
Turning to `CCN(C(=O)c1cc2c(s1)-c1ccccc1OC2)c1cc(OC)ccc1OC`, the CC50 in experiment [1] is 26.8 µM (active).
Take `CCN1CCN(C(CNS(=O)(=O)c2ccc(C)cc2)c2cccnc2)CC1` (centres undefined): the EC50 (in the experiment on Streptococcus; in experiment [5]; on Streptokinase A) was > 150 µM (not active) in each case.
For `COc1ccc(Cl)cc1C(=O)NNC(=S)NC(=O)c1cc(-c2ccc(Cl)cc2)nc2ccccc12`, the EC50 is 6 µM (active) in the experiment on Streptococcus and 0.202 µM (active) in experiment [5].
With `CCCC(=O)Nc1cc(-c2nn(C)c(=O)c3ccccc23)ccc1OC`, the EC50 in experiment [2] is > 260 µM (inactive).
With `OCCC1CN(Cc2cc3c(cc2Cl)OCO3)CCN1Cc1ccccc1` (centres undefined), the EC50 was > 60 µM (not active) in experiment [3] and 1.21 µM (active) in experiment [4].
`CC(=O)c1cccc(S(=O)(=O)N2CCCC(c3nc(O)c4nnn(Cc5cccc(Cl)c5)c4n3)C2)c1` (centres undefined): the cytotoxic concentration (CC50) in experiment [1] was > 50 µM (active).
Consider `C#C[C@@]1(O)CC[C@@H]2[C@@H]3CCC4=CC(=O)CC[C@@H]4[C@H]3CC[C@]21CC`, for which the half-maximal activity concentration (AC50) on Cytochrome P450 2C19 was 0.0794 µM (inconclusive).
`Cc1ccc(C)c(S(=O)(=O)N2CCN(CC(=O)Nc3cc(C)on3)CC2)c1`: the EC50 in experiment [2] is > 260 µM (inactive).
`C=CCn1c(-c2ccc(Cl)cc2)ccc(C#N)c1=O`: the CC50 in experiment [1] is > 50 µM (active).
`CC(Oc1ccc(Cl)cc1Cl)C(=O)NCCCCc1ccccc1` (centres undefined): in experiment [2], the EC50 is > 260 µM (inactive).
As to `Cc1ccc2nc(-c3ccncc3)c(NC3CCCC3)n2c1`, the results for the EC50 in experiment [3] and in experiment [4] were > 60 µM (not active) and 2.29 µM (active), respectively.
For the compound `COc1ccc(-c2ccc([C@H]3[C@@H]4C=CCC[C@@]4(C)C(=O)N3Cc3ccccc3)c(F)c2)cc1OC`, the EC50 in experiment [3] was 37.1 µM (active); in experiment [4], 2.55 µM (active).
For the compound `C/C(=N\NC(=O)c1ccccc1N)c1ccc(NC(=O)Cc2ccccc2)cc1`, the EC50 with Streptococcus is 16.3 µM (active); in experiment [5] it was 3.07 µM (active); on Streptokinase A it was > 150 µM (not active).
Turning to `C/C(=N\Nc1nc(C)cc(-c2ccccc2)n1)c1ccc(C)o1`, the EC50 in experiment [2] is > 260 µM (inactive).
As for `C=CCn1sc(N)c(C(=O)OCC)c1=S`, the cytotoxic concentration (CC50) in experiment [1] was 24 µM (active).
As for `COc1cccc(-c2c(C#N)c(N)nc3c2c(C)nn3-c2ccccc2)c1O`, the EC50 in experiment [2] is 57.9 µM (active).

What is called CC50 is the concentration at which the toxic effect on the cells reaches its halfway point. For orientation: AC50 means the midpoint of the concentration-response curve, whichever way the signal moves. One may read the EC50 as the concentration that produces a half-maximal response.
